{"source": "patent US11805778B2", "about": "“Composition including an antimicrobial boosting agent including an amphocarboxylate and methods of increasing the antimicrobial effectiveness of a composition” (KIMBERLY-CLARK WORLDWIDE, INC., priority 2018, dated 2023)", "tested_on": "B. cepacia (ATCC 25416)", "test": "Minimum Effective Concentration (MEC) Test Method", "type": "cell-based, Burkholderia cepacia", "conditions": "for MEC of antimicrobial agent Lactic Acid (Purac FCC 88) / MEC of antimicrobial agent Caprylhydroxamic Acid (Zeastat) / MEC of antimicrobial agent Hydroxyacetophenone (SymSave H) / MEC of antimicrobial agent Sodium Benzoate: B. cepacia, 24 hours; for performance as antimicrobial boosting agent: summary in words of the MEC testing of Table 1", "procedure": "Initial testing was conducted to screen a variety of surfactants in researching for potential antimicrobial boosting agents. The initial testing followed the methodology as described in the Minimum Effective Concentration (“MEC”) Test Method described in the Test Methods section herein. To summarize, the MEC testing paired a variety of potential antimicrobial boosting agents with a variety of known antimicrobial agents to determine the MEC of the respective antimicrobial agent that must be used to provide an effective antimicrobial result, as described in further detail in the Test Methods section. The more positive the boosting characteristics of an antimicrobial boosting agent, then the lower the MEC that would be required for the paired antimicrobial agent. It is to be noted that the molarities listed in Table 1 are approximate values that were calculated based on the estimated activities of the ingredients and the molecular weights of the active ingredients. In instances where an exact activity was not available for an ingredient blend, the ingredient blend activity was estimated as the average of the upper and lower limits of the specification provided by the manufacturer of such blend. In instances where an exact molecular weight could not be calculated (for example, in compounds derived from a natural oil like coconut oil), the molecular weight of the active was estimated based on a weighted average of the molecular weights of the constituent species.\nThe Minimum Effective Concentration Test Method discussed herein began by adding B. cepacia (ATCC 25416) culture at a final concentration of approximately 5×10^6 CFU/mL to the composition to be challenged. The challenged composition was then allowed to incubate at room temperature for 24 hours. After 24 hours, a preservative neutralizing broth was added to the mixture and measurements were subsequently taken to determine the concentration of B. cepacia still remaining after exposure to the test composition.\nThe Minimum Effective Concentration was determined by completing the process described above on a series of compositions with the same concentration of antimicrobial boosting agent, but with different concentrations of antimicrobial agent. The Minimum Effective Concentration of antimicrobial agent for any given value of antimicrobial boosting agent was defined as the minimum concentration of antimicrobial agent required to reduce the concentration of B. cepacia to a level below the detection threshold for the test method, which was approximately 100 CFU/mL. In instances where multiple rounds of Minimum Effective Concentration testing were completed, the value reported is the mean of the Minimum Effective Concentration values generated by each individual series of tests.", "key": {"[1]": {"conditions": "paired with the labelled potential boosting agent at 5 mmol/L"}, "[2]": {"conditions": "no antimicrobial boosting agent"}}, "data": [{"compound": "Laureth-3 Phosphate [Dermalcare MAP L-130]", "values": [{"measurement": "MEC of antimicrobial agent Lactic Acid (Purac FCC 88)", "setting": "[1]", "value": 40, "unit": "mmol/L"}]}, {"compound": "Coco-Glucoside [Plantacare 818 UP]", "values": [{"measurement": "MEC of antimicrobial agent Lactic Acid (Purac FCC 88)", "setting": "[1]", "value": ">60", "unit": "mmol/L"}, {"measurement": "performance as antimicrobial boosting agent", "value": "did not perform well as antimicrobial boosting agents"}]}, {"compound": "Sodium Cocoamphopropionate [Rewoteric AM KSF 40]", "values": [{"measurement": "MEC of antimicrobial agent Caprylhydroxamic Acid (Zeastat)", "setting": "[1]", "value": 4, "unit": "mmol/L"}, {"measurement": "MEC of antimicrobial agent Hydroxyacetophenone (SymSave H)", "setting": "[1]", "value": 10, "unit": "mmol/L"}, {"measurement": "MEC of antimicrobial agent Lactic Acid (Purac FCC 88)", "setting": "[1]", "value": "<10", "unit": "mmol/L"}, {"measurement": "MEC of antimicrobial agent Sodium Benzoate", "setting": "[1]", "value": 1.8, "unit": "mmol/L"}]}, {"compound": "Disodium Cocoamphodiacetate [Mackam 2C-75]", "values": [{"measurement": "MEC of antimicrobial agent Caprylhydroxamic Acid (Zeastat)", "setting": "[1]", "value": 4, "unit": "mmol/L"}, {"measurement": "MEC of antimicrobial agent Hydroxyacetophenone (SymSave H)", "setting": "[1]", "value": 10, "unit": "mmol/L"}, {"measurement": "MEC of antimicrobial agent Lactic Acid (Purac FCC 88)", "setting": "[1]", "value": 30, "unit": "mmol/L"}, {"measurement": "MEC of antimicrobial agent Sodium Benzoate", "setting": "[1]", "value": 2.5, "unit": "mmol/L"}, {"measurement": "performance as antimicrobial boosting agent", "value": "provided at least some antimicrobial boosting effect"}]}, {"compound": "Sodium Cocoamphoacetate [ColaTeric 1C]", "values": [{"measurement": "MEC of antimicrobial agent Hydroxyacetophenone (SymSave H)", "setting": "[1]", "value": 15, "unit": "mmol/L"}, {"measurement": "MEC of antimicrobial agent Lactic Acid (Purac FCC 88)", "setting": "[1]", "value": 30, "unit": "mmol/L"}]}, {"compound": "Caprylyl/Capryl Glucoside [Plantaren 810 UP]", "values": [{"measurement": "MEC of antimicrobial agent Lactic Acid (Purac FCC 88)", "setting": "[1]", "value": 60, "unit": "mmol/L"}]}, {"compound": "CCCCCCCC[N+](C)(C)[O-]", "note": "[Techmine 280, Octyldimethylamine Oxide]", "values": [{"measurement": "MEC of antimicrobial agent Lactic Acid (Purac FCC 88)", "setting": "[1]", "value": 40, "unit": "mmol/L"}]}, {"compound": "Disodium PEG-12 Dimethicone Sulfosuccinate [Mackanate Ultra Si]", "values": [{"measurement": "MEC of antimicrobial agent Lactic Acid (Purac FCC 88)", "setting": "[1]", "value": 40, "unit": "mmol/L"}]}, {"compound": "CC(O)C(=O)O", "note": "(centres unmarked) [Purac FCC 88, Lactic Acid]", "values": [{"measurement": "MEC of antimicrobial agent Lactic Acid (Purac FCC 88)", "setting": "[2]", "value": 60, "unit": "mmol/L"}]}, {"compound": "O=C([O-])c1ccccc1.[Na+]", "note": "[Sodium Benzoate]", "values": [{"measurement": "MEC of antimicrobial agent Sodium Benzoate", "setting": "[2]", "value": 7.5, "unit": "mmol/L"}]}, {"compound": "Polysorbate 20 [Eumulgin SML-20]", "values": [{"measurement": "MEC of antimicrobial agent Caprylhydroxamic Acid (Zeastat)", "setting": "[1]", "value": 10, "unit": "mmol/L"}, {"measurement": "MEC of antimicrobial agent Hydroxyacetophenone (SymSave H)", "setting": "[1]", "value": ">20", "unit": "mmol/L"}, {"measurement": "MEC of antimicrobial agent Lactic Acid (Purac FCC 88)", "setting": "[1]", "value": 50, "unit": "mmol/L"}, {"measurement": "MEC of antimicrobial agent Sodium Benzoate", "setting": "[1]", "value": 5, "unit": "mmol/L"}, {"measurement": "performance as antimicrobial boosting agent", "value": "did not perform well as antimicrobial boosting agents"}]}, {"compound": "Cocamide DIPA [Cola Liquid DC]", "values": [{"measurement": "MEC of antimicrobial agent Hydroxyacetophenone (SymSave H)", "setting": "[1]", "value": 20, "unit": "mmol/L"}, {"measurement": "MEC of antimicrobial agent Lactic Acid (Purac FCC 88)", "setting": "[1]", "value": "Unstable"}, {"measurement": "performance as antimicrobial boosting agent", "value": "did not perform well as antimicrobial boosting agents"}]}, {"compound": "sodium cocoamphoacetate", "values": [{"measurement": "performance as antimicrobial boosting agent", "value": "provided at least some antimicrobial boosting effect"}]}, {"compound": "Sodium Laurylglucosides Hydroxypropylsulfonate [Suga Nate 160]", "values": [{"measurement": "MEC of antimicrobial agent Lactic Acid (Purac FCC 88)", "setting": "[1]", "value": ">50", "unit": "mmol/L"}]}, {"compound": "sodium cocoamphodipropionate", "values": [{"measurement": "performance as antimicrobial boosting agent", "value": "provided at least some antimicrobial boosting effect"}]}, {"compound": "CCCCCCCCCCCCCCCC[N+](C)(C)CC(=O)[O-]", "note": "[Mackam CET, Cetyl Betaine]", "values": [{"measurement": "MEC of antimicrobial agent Lactic Acid (Purac FCC 88)", "setting": "[1]", "value": 40, "unit": "mmol/L"}]}, {"compound": "CCCCCCCCCCCC(=O)OC(C)C(=O)OC(C)C(=O)[O-].[Na+]", "note": "(centres unmarked) [Dermosoft SLL, Sodium Lauroyl Lactylate]", "values": [{"measurement": "MEC of antimicrobial agent Lactic Acid (Purac FCC 88)", "setting": "[1]", "value": 30, "unit": "mmol/L"}]}, {"compound": "Disodium Capryloamphodiacetate [Sopalteric DSCYA-27]", "values": [{"measurement": "MEC of antimicrobial agent Lactic Acid (Purac FCC 88)", "setting": "[1]", "value": 30, "unit": "mmol/L"}, {"measurement": "performance as antimicrobial boosting agent", "value": "provided at least some antimicrobial boosting effect"}]}, {"compound": "Sodium Methyl Cocoyl Taurate [Hostapon CT Paste]", "values": [{"measurement": "MEC of antimicrobial agent Sodium Benzoate", "setting": "[1]", "value": 2.5, "unit": "mmol/L"}]}, {"compound": "Sodium Lauroamphoacetate [Sopalteric SLA-32]", "values": [{"measurement": "MEC of antimicrobial agent Lactic Acid (Purac FCC 88)", "setting": "[1]", "value": 20, "unit": "mmol/L"}, {"measurement": "performance as antimicrobial boosting agent", "value": "provided at least some antimicrobial boosting effect"}]}, {"compound": "CCCCCCCC[N+](C)(C)CC(=O)[O-]", "note": "[Mackam BW-139, Octyl Betaine]", "values": [{"measurement": "MEC of antimicrobial agent Lactic Acid (Purac FCC 88)", "setting": "[1]", "value": 40, "unit": "mmol/L"}]}, {"compound": "Sodium Cocoamphoacetate [Mackam HPC-32L]", "values": [{"measurement": "MEC of antimicrobial agent Lactic Acid (Purac FCC 88)", "setting": "[1]", "value": 40, "unit": "mmol/L"}]}, {"compound": "PEG-80 Sorbitan Laurate [Alkamuls PSML-80/72LD]", "values": [{"measurement": "MEC of antimicrobial agent Lactic Acid (Purac FCC 88)", "setting": "[1]", "value": 50, "unit": "mmol/L"}]}, {"compound": "C[N+](C)(CCO)CC(O)C[N+](C)(C)CCO.[Cl-].[Cl-]", "note": "[Cola Moist 200, Hydroxypropyl Bis-Hydroxyethyldimonium Chloride]", "values": [{"measurement": "MEC of antimicrobial agent Lactic Acid (Purac FCC 88)", "setting": "[1]", "value": 50, "unit": "mmol/L"}]}, {"compound": "CCCCCCCC(=O)NO", "note": "[Zeastat, Caprylhydroxamic Acid]", "values": [{"measurement": "MEC of antimicrobial agent Caprylhydroxamic Acid (Zeastat)", "setting": "[2]", "value": 10, "unit": "mmol/L"}]}, {"compound": "Sodium Cocoyl Isethionate [Hostapon SCI 85 P]", "values": [{"measurement": "MEC of antimicrobial agent Lactic Acid (Purac FCC 88)", "setting": "[1]", "value": 50, "unit": "mmol/L"}, {"measurement": "performance as antimicrobial boosting agent", "value": "did not perform well as antimicrobial boosting agents"}]}, {"compound": "Lauryl Glucoside [Plantaren 1200 N UP]", "values": [{"measurement": "MEC of antimicrobial agent Lactic Acid (Purac FCC 88)", "setting": "[1]", "value": ">30", "unit": "mmol/L"}, {"measurement": "MEC of antimicrobial agent Sodium Benzoate", "setting": "[1]", "value": 10, "unit": "mmol/L"}]}, {"compound": "Disodium Cocoamphodipropionate [Mackam 2CSF-40CG]", "values": [{"measurement": "MEC of antimicrobial agent Caprylhydroxamic Acid (Zeastat)", "setting": "[1]", "value": 6, "unit": "mmol/L"}, {"measurement": "MEC of antimicrobial agent Hydroxyacetophenone (SymSave H)", "setting": "[1]", "value": 10, "unit": "mmol/L"}, {"measurement": "MEC of antimicrobial agent Lactic Acid (Purac FCC 88)", "setting": "[1]", "value": "<10", "unit": "mmol/L"}, {"measurement": "MEC of antimicrobial agent Sodium Benzoate", "setting": "[1]", "value": 2.5, "unit": "mmol/L"}, {"measurement": "performance as antimicrobial boosting agent", "value": "provided at least some antimicrobial boosting effect"}]}, {"compound": "PEG-40 Hydrogenated Castor Oil [Tagat CH40]", "values": [{"measurement": "MEC of antimicrobial agent Caprylhydroxamic Acid (Zeastat)", "setting": "[1]", "value": 10, "unit": "mmol/L"}, {"measurement": "MEC of antimicrobial agent Hydroxyacetophenone (SymSave H)", "setting": "[1]", "value": ">20", "unit": "mmol/L"}, {"measurement": "MEC of antimicrobial agent Lactic Acid (Purac FCC 88)", "setting": "[1]", "value": ">60", "unit": "mmol/L"}, {"measurement": "performance as antimicrobial boosting agent", "value": "did not perform well as antimicrobial boosting agents"}]}, {"compound": "Cocamidopropyl Betaine [Dehyton PK-45]", "values": [{"measurement": "MEC of antimicrobial agent Sodium Benzoate", "setting": "[1]", "value": ">15", "unit": "mmol/L"}]}]}
